# In patent US8877778B2, “Benzofurane compounds” (Hoffmann-La Roche Inc., priority 2010, dated 2014):
# Legend:
# human D2 receptor = human D2 receptor (Homo sapiens (Human), UniProt P14416); test: Radioligand binding ([3H]-spiperone) to cloned receptors expressed in HEK-293 EBNA cells; settings: HEK293 EBNA cell membranes expressing human D2
# Description: (§1) HEK293 EBNA cells were transiently transfected with expression plasmids encoding for the human D2 or D3 or for the human 5-HT2A receptor, respectively. The cells were harvested 48 h post-transfection, washed three times with cold PBS and stored at −80° C. prior to use. The pellet was suspended in cold 50 mM Tris-HCl buffer comprising 10 mM EDTA (pH 7.4) and was homogenized with a Polytron (Kinematica AG, Basel, Switzerland) for 20-30 sec at 12.000 rpm. After centrifugation at 48.000×g for 30 min at 4° C., the pellet was resuspended in cold 10 mM Tris-HCl buffer comprising 0.1 mM EDTA (pH 7.4), homogenized, and centrifuged as above. This pellet was further resuspended in a smaller volume of ice cold 10 mM Tris-HCl buffer comprising 0.1 mM EDTA (pH 7.4) and homogenized with a Polytron for 20-30 sec at 12.000 rpm. The protein content of this homogenate was determined with the Bio-Rad (Bradford) Protein Assay (Biorad Laboratories GmbH, München, Germany) according to the instructions of the manufacturer using gamma globulin as the standard. This homogenate was stored at −80° C. in aliquots and thawed immediately prior to use.
# (§2) Aliquots of membrane preparations were thawed at RT, resupended in assay buffer (D2, D3: 50 mM Tris-HCl, 120 mM NaCl, 5 mM MgCl2, 1 mM EDTA, 5 mM KCl, 1.5 mM CaCl2, pH=7.4; 5-HT2A: 50 mM Tris-HCl, 10 mM MgCl2, 1 mM EGTA, pH=7.4), homogenized with a Polytron for 20-30 sec at 12.000 rpm and adjusted to a final concentration of approximately 7.5 μg protein/well (D2, D3) and 15 μg protein/well (5-HT2A), respectively.
# (§3) The binding affinity (Ki) of the compounds was determined using radioligand binding. Membranes were incubated in a total volume of 200 μl with a fixed concentration of radioligand (final concentration approximately 0.7 nM [^3H]-spiperone for D2, 0.5 nM [^3H]-spiperone for D3, and 1.1 nM [^3H]-ketanserin for 5-HT2A) and ten concentrations of test compound in ranging between 10 μM-0.1 nM for 1 h at RT. At the end of the incubation, the reaction mixtures were filtered on to unifilter 96-well white microplates with bonded GF/C filters (Packard BioScience, Zürich, Switzerland; preincubated for 1 h in 0.1% polyethylenimine (PEI) in assay buffer) with a Filtermate 196 harvester (Packard BioScience) and washed 3 times with cold assay buffer. The nonspecific binding was determined with equally composed reaction mixtures in the presence of 10 μM unlabelled spiperone. Per well 45 μl of Microscint 40 (Perkin Elmer, Schwerzenbach, Switzerland) was added, plates for sealed, shaken for 20 min and counted for 3 min on a Topcount Microplate Scintillation Counter (Can berra Packard SA, Zürich, Switzerland) with quenching correction.
# (§4) The CPM value for each duplicate of a concentration of competing compound was averaged (y1), then the % specific binding was calculated according to the equation (((y1−non-specific)/(total binding−non-specific))×100). Graphs were plotted with the % specific binding using XLfit, a curve fitting program that iteratively plots the data using Levenberg-Marquardt algorithm. The single site competition analysis equation used was y=A+((B−A)/(1+((x/C)D))), where y is the % specific binding, A is the minimum y, B is the maximum y, C is the IC50, x is the log 10 of the concentration of the competing compound and D is the slope of the curve (the Hill Coefficient). […] The affinity constant (Ki) was calculated using the Cheng-Prusoff equation Ki=(IC50/1+([L]/Kd), where [L] is the concentration of radioligand and Kd is the dissociation constant of the radioligand at the receptor as determined by the saturation isotherm.
# human D3 receptor = human D3 receptor (Homo sapiens (Human), UniProt P35462); test: as above; settings: HEK293 EBNA cell membranes expressing human D3
# Sequence of human D3 receptor (P35462 whole entry): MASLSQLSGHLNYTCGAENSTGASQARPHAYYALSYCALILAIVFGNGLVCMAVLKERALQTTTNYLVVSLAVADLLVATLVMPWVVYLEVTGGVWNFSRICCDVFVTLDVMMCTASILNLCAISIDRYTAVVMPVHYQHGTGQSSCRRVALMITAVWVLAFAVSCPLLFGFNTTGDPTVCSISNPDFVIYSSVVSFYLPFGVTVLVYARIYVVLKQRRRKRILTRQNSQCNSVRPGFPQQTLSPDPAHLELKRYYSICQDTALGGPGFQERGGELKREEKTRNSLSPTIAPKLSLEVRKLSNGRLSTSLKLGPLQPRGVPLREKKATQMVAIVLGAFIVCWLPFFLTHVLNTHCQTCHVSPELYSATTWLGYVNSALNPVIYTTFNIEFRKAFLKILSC
# Description: as §1, §2, §3, §4
# human 5-HT2A receptor = human 5-HT2A receptor (Homo sapiens (Human), UniProt P28223); test: Radioligand binding ([3H]-ketanserin) to cloned receptors expressed in HEK-293 EBNA cells; settings: HEK293 EBNA cell membranes expressing human 5-HT2A
# Sequence of human 5-HT2A receptor (P28223 whole entry): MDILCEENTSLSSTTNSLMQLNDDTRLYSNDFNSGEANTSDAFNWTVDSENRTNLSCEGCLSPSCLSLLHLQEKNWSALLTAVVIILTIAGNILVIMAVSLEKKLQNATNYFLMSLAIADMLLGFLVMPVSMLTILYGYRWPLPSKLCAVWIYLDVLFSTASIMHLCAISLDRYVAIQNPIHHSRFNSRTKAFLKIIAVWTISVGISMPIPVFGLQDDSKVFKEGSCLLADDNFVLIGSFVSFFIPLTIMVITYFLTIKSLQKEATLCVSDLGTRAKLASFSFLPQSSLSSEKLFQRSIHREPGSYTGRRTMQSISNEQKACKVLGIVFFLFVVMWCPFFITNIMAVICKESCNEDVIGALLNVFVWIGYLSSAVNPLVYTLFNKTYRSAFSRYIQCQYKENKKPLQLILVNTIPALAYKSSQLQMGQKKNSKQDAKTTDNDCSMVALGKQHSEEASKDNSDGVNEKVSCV
# Description: as §1, §2, §3, §4
# Sequence of human D2 receptor (P14416 whole entry): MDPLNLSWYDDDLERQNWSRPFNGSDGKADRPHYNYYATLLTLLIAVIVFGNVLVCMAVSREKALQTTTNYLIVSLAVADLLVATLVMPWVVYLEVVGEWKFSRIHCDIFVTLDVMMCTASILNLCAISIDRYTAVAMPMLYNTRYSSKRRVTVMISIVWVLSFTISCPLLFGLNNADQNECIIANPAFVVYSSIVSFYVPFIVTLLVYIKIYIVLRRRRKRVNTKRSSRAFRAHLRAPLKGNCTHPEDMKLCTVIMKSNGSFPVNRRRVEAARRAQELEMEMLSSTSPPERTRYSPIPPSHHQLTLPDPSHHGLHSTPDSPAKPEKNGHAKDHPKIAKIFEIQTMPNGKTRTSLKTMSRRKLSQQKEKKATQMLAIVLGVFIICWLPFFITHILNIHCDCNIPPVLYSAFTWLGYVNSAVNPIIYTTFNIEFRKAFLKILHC
SMILES,Ki (human D2 receptor) [nM],Ki (human D3 receptor) [nM],melting point [°C],Ki (human 5-HT2A receptor) [nM]
"O=C(CC1COCCO1)N[C@H]1CC[C@H](CCN2CCC(c3cccc4occc34)CC2)CC1 (mixture of isomers) [Example 12, trans-N-{4-[2-(4-Benzofuran-4-yl-piperidin-1-yl)-ethyl]-cyclohexyl}-rac-2-[1,4]dioxan-2-yl-acetamide]",219,5.4,165,
"O=C(CC1COCCO1)N[C@H]1CC[C@H](CCN2CCC(c3cccc4c3CCO4)CC2)CC1 (mixture of isomers) [Example 16, trans-N-(4-{2-[4-(2,3-Dihydro-benzofuran-4-yl)-piperidin-1-yl]-ethyl}-cyclohexyl)-rac-2-[1,4]dioxan-2-yl-acetamide]",,,192,22.3
"O=C(CC1CCCO1)N[C@H]1CC[C@H](CCN2CCC(c3cccc4c3CCO4)CC2)CC1 (mixture of isomers) [Example 25, trans-N-(4-{2-[4-(2,3-Dihydro-benzofuran-4-yl)-piperidin-1-yl]-ethyl}-cyclohexyl)-rac-2-(tetrahydro-furan-2-yl)-acetamide]",,,192,
"O=C(N[C@H]1CC[C@H](CCN2CCC(c3cccc4c3CCO4)CC2)CC1)C(O)C(F)(F)F (mixture of isomers) [Example 37, trans-(RS)—N-(4-{2-[4-(2,3-Dihydro-benzofuran-4-yl)-piperidin-1-yl]-ethyl}-cyclohexyl)-3,3,3-trifluoro-2-hydroxy-propionamide]",241,9.2,179,
"O=C(N[C@H]1CC[C@H](CCN2CCC(c3cccc4c3CCO4)CC2)CC1)C1CCOC1 (mixture of isomers) [Example 52, (RS)-Tetrahydro-furan-3-carboxylic acid trans-(4-{2-[4-(2,3-dihydro-benzofuran-4-yl)-piperidin-1-yl]-ethyl}-cyclohexyl)-amide]",135,5.5,211,24.6
"O=C(N[C@H]1CC[C@H](CCN2CCC(c3cccc4c3CCO4)CC2)CC1)C1CCCO1 (mixture of isomers) [Example 53, (RS)-Tetrahydro-furan-2-carboxylic acid trans-(4-{2-[4-(2,3-dihydro-benzofuran-4-yl)-piperidin-1-yl]-ethyl}-cyclohexyl)-amide]",,41.5,160,13.1
"O=C(N[C@H]1CC[C@H](CCN2CCC(c3cccc4c3CCO4)CC2)CC1)C1CCCOC1 (mixture of isomers) [Example 54, (RS)-Tetrahydro-pyran-3-carboxylic acid trans-(4-{2-[4-(2,3-dihydro-benzofuran-4-yl)-piperidin-1-yl]-ethyl}-cyclohexyl)-amide]",633,,222,21.3
"CCC(C)C(=O)N[C@H]1CC[C@H](CCN2CCC(c3cccc4c3CCO4)CC2)CC1 (mixture of isomers) [Example 62, trans-N-(4-{2-[4-(2,3-Dihydro-benzofuran-4-yl)-piperidin-1-yl]-ethyl}-cyclohexyl)-(RS)-2-methyl-butyramide]",1200,,210,64.4
"CC(=O)N[C@H]1CC[C@H](CCN2CCC(c3cccc4occc34)CC2)CC1 [Example 1, trans-N-{4-[2-(4-Benzofuran-4-yl-piperidin-1-yl)-ethyl]-cyclohexyl}-acetamide]",187,2.9,167,6.8
"COCCC(=O)N[C@H]1CC[C@H](CCN2CCC(c3cccc4occc34)CC2)CC1 [Example 2, trans-N-{4-[2-(4-Benzofuran-4-yl-piperidin-1-yl)-ethyl]-cyclohexyl}-3-methoxy-propionamide]",288,3.1,154,7.1
"O=C(N[C@H]1CC[C@H](CCN2CCC(c3cccc4occc34)CC2)CC1)C1CCOCC1 [Example 3, Tetrahydro-pyran-4-carboxylic acid trans-{4-[2-(4-benzofuran-4-yl-piperidin-1-yl)-ethyl]-cyclohexyl}-amide]",305,11.9,217,2.2
"O=C(CC1CCOCC1)N[C@H]1CC[C@H](CCN2CCC(c3cccc4occc34)CC2)CC1 [Example 4, trans-N-{4-[2-(4-Benzofuran-4-yl-piperidin-1-yl)-ethyl]-cyclohexyl}-2-(tetrahydro-pyran-4-yl)-acetamide]",219,5.7,181,9
"CC(=O)N[C@H]1CC[C@H](CCN2CCC(c3cccc4c3CCO4)CC2)CC1 [Example 5, trans-N-(4-{2-[4-(2,3-Dihydro-benzofuran-4-yl)-piperidin-1-yl]-ethyl}-cyclohexyl)-acetamide]",298,6,183,37.2
"COCCC(=O)N[C@H]1CC[C@H](CCN2CCC(c3cccc4c3CCO4)CC2)CC1 [Example 6, trans-N-(4-{2-[4-(2,3-Dihydro-benzofuran-4-yl)-piperidin-1-yl]-ethyl}-cyclohexyl)-3-methoxy-propionamide]",509,6.6,182,38.7
"O=C(N[C@H]1CC[C@H](CCN2CCC(c3cccc4c3CCO4)CC2)CC1)C1CCOCC1 [Example 7, Tetrahydro-pyran-4-carboxylic acid trans-(4-{2-[4-(2,3-dihydro-benzofuran-4-yl)-piperidin-1-yl]-ethyl}-cyclohexyl)-amide]",716,22.8,227,12.8
"O=C(C[C@@H]1COCCO1)N[C@H]1CC[C@H](CCN2CCC(c3cccc4c3CCO4)CC2)CC1 [Example 21, trans-N-(4-{2-[4-(2,3-Dihydro-benzofuran-4-yl)-piperidin-1-yl]-ethyl}-cyclohexyl)-(R)-2-[1,4]dioxan-2-yl-acetamide]",,,190,27.9
"O=C(C[C@H]1COCCO1)N[C@H]1CC[C@H](CCN2CCC(c3cccc4c3CCO4)CC2)CC1 [Example 22, trans-N-(4-{2-[4-(2,3-Dihydro-benzofuran-4-yl)-piperidin-1-yl]-ethyl}-cyclohexyl)-(8)-2-[1,4]dioxan-2-yl-acetamide]",,,190,19.4
"O=C(C[C@H]1CCCO1)N[C@H]1CC[C@H](CCN2CCC(c3cccc4c3CCO4)CC2)CC1 [Example 31, trans-N-(4-{2-[4-(2,3-Dihydro-benzofuran-4-yl)-piperidin-1-yl]-ethyl}-cyclohexyl)-(R)-2-(tetrahydro-furan-2-yl)-acetamide]",,,192,
"O=C(C[C@@H]1CCCO1)N[C@H]1CC[C@H](CCN2CCC(c3cccc4c3CCO4)CC2)CC1 [Example 32, trans-N-(4-{2-[4-(2,3-Dihydro-benzofuran-4-yl)-piperidin-1-yl]-ethyl}-cyclohexyl)-(S)-2-(tetrahydro-furan-2-yl)-acetamide]",,,192,
"O=C(N[C@H]1CC[C@H](CCN2CCC(c3cccc4c3CCO4)CC2)CC1)C1(O)CCC1 [Example 39, 1-Hydroxy-cyclobutanecarboxylic acid trans-(4-{2-[4-(2,3-dihydro-benzofuran-4-yl)-piperidin-1-yl]-ethyl}-cyclohexyl)-amide]",306,27.3,,12.3
